Results on 26 molecules are retold here after patent publication US7112586B2, “Substituted diamine derivatives useful as motilin antagonists” (Ortho-McNeil Pharmaceutical, Inc., priority 2000, dated 2006).

Assay [1] concerns motilin induced contraction. The assay is described as follows: Rabbit tissue bath procedure: inhibition of motilin induced contraction of duodenum segments. The conditions noted are these: 3 nM porcine motilin induced contraction, read-out: Tissues IC50. Further details: species or system New Zealand White rabbit. The method, then:
Rabbit Tissue Bath Procedure
One New Zealand White rabbit (Covance) of either sex was euthanized with an IV injection of Sleepaway. The duodenum was quickly excised, the lumen rinsed with saline to clean, and the tissue placed in cold, aerated (95% O2–5% CO2) Tyrodes buffer (NaCl 136.9 mM, KCl 2.7 mM, CaCl2 1.8 mM, MgCl2 1.04 mM, NaH2PO4 0.42 mM, NaHCO3 11.9 mM, Glucose 5.55 mM, pH 7.4). The duodenum, being kept moist at all times, was cleaned of any excess mesenteric tissue, and then cut into 3 cm segments starting at the proximal end. Sixteen tissue segments were usually prepared from each duodenum. These segments were tied on both ends with 3-0 silk suture (Ethicon). One end of the tissue was attached to an S-hook on a custom made glass support rod (Crown Glass Co., Somerville) and the rod plus tissue were placed in a 15 ml isolated tissue bath (Radnoti). The other end of the glass rod was attached to a Grass Force Displacement Transducer FT03. The tissue was maintained in room temperature Tyrodes buffer pH 7.4 and continually gassed with 95% O2— 5% CO2. The tissues were adjusted to 1.0 g resting tension and maintained at that tension throughout the equilibration period. An Ml2 Tissue Bath Computer was used to record and analyze data.
The tissues were washed twice during a 30 minute equilibration period and readjusted to 1 g resting tension as necessary. After equilibration the tissues were challenged with 3 μM Carbachol (Carbamoylcholine Chloride-Sigma). After maximal contraction was attained, the tissues were washed 3 times with Tyrodes. The tissues were allowed a 20 minute resting/equilibration period, during which time they were washed once and readjusted to 1 g resting tension. The tissues were challenged a second time with 3 μM Carbachol, and this contraction was considered as maximal, or 100% contraction. The tissues were washed 3 times, equilibrated for 10 minutes, washed again and readjusted to 1 g resting tension. Vehicle or test compound in 30% DMSO-50 mM HEPES was added directly to the bath and the tissues were incubated for 20 minutes. Test compounds and vehicle were run in duplicate.
The percent inhibition by test compound of the motilin induced contraction was calculated by first determining the ratio of the vehicle contractions with Motilin compared to the Carbachol contractions. This Tissue Adjustment Factor (TAF) was used to determine the value for the potential uninhibited contraction with Motilin for each tissue. The percent inhibition was then determined by dividing the actual Motilin contraction in treated tissues by the potential uninhibited contraction and subtracting this number from 1. IC50 values were determined by graphing results with Kaleidograph graphing program.

The target of another assay is T1, Motilin Receptor (Oryctolagus cuniculus, UniProt G1T803).
T1 construct: The muscle tissue was homogenized in 10 volumes of 50 mM Tris-Cl; from tissue; host or cells: rabbit colon smooth muscle, crude membrane homogenate
Kind of assay: Motilin receptor binding, rabbit colon membranes, 125I porcine motilin. The conditions noted are these: rabbit colon membranes; for inhibition: read-out: Rabbit Colon % Inh; for IC50: read-out: Rabbit Colon IC50. Further details: Rabbit Colon % Inh / inhibition / % Inh (Rabbit colon): dose or concentration left out as unconfirmed.

Assay [2] concerns the target T2, motilin receptor preparation (Human antrum tissue) (Homo sapiens, UniProt O43193).
T2 construct: Human antrum tissue from Analytical Biological Services (Wilmington, Del.) was prepared as a motilin receptor preparation; tissue Analytical Biological Services (Wilmington, Del.); host or cells: human antrum (stomach) muscle tissue, crude membrane homogenate
Kind of assay: 125I-motilin binding to human antral stomach membranes. The conditions noted are these: human antrum membranes; for inhibition at 1 µM: read-out: Human Antrum % Inh @1 μM. On the procedure: Human antrum tissue from Analytical Biological Services (Wilmington, Del.) was prepared as a motilin receptor preparation in the following manner. The muscle tissue was homogenized in 10 volumes of 50 mM Tris-Cl, 10 mM MgCl2, 0.1 mg/ml bacitracin, and 0.25 mM Peflabloc, pH 7.5) in a Polytron (29000 rpm, 4×15 seconds). The homogenate was centrifuged at 1000×g for 15 minutes and the supernatant discarded. The pellet was washed twice before being suspended in homogenizing buffer. The crude homogenate was resuspended through a 23 gauge needle before aliquoting and storing at −80° C. The human cloned receptor was prepared from HEK 293 cells overexpressed with the motilin receptor. Cell pellets were thawed and resuspended in 2–3 volumes of homogenizing buffer (10 mM Tris-Cl, 0.2 mM MgCl2, 5 mM KCl, 5 μg/ml aprotinin, leupeptin, and pepstatin A, and 50 μg/ml bacitracin, pH 7.5) and allowed to sit on ice for 15–20 minutes. The suspension was homogenized on ice in a Dounce type homogenizer using 15 strokes. Sucrose and EDTA were added to a final concentration of 0.25M and 1 mM, respectively, and mixed with a few additional strokes. The material was centrifuged at 400×g for 5 minutes, and the supernatant saved. The pellet was re-resuspended twice with 5 ml homogenizing buffer and rehomogenized as before, and the supernatants combined. The supernatant was centrifuged at 100000×g for 1 hour. The pellet is retained and resuspended with 5 ml of homogenizing buffer through a 19 g and 25 g needle. The suspension is aliquoted and stored at −80° C. until used. The binding assay contains the following components (50 mM HEPES, 5 mM MgCl2, and 1 mM EGTA, pH 7.0, 15 mg/ml BSA, 10 μg/ml aprotinin, leupeptin, and pepstatin A, 0.25 mg/ml bacitracin, and 10 mM benzamidine), ^125I-radiolabelled porcine motilin (50000–70000 cpm; specific activity 2000 Ci/mmol), test compound, and membrane protein. After 60 minutes at 30° C., the samples are placed on ice and centrifuged for 1 minute at 13000×g. The pellet is washed twice with 1 ml cold saline, and after removal of the final supernatant, the pellet at the bottom of the tube is counted in a gamma counter. Non-specific binding is measured by the inclusion of 1 μM unlabelled motilin. IC50 values were determined from Kaleidograph curves.
125I-Motilin Binding to Human Antral Stomach Membranes and the Human Cloned Receptor: […]

T2 sequence (O43193 whole entry): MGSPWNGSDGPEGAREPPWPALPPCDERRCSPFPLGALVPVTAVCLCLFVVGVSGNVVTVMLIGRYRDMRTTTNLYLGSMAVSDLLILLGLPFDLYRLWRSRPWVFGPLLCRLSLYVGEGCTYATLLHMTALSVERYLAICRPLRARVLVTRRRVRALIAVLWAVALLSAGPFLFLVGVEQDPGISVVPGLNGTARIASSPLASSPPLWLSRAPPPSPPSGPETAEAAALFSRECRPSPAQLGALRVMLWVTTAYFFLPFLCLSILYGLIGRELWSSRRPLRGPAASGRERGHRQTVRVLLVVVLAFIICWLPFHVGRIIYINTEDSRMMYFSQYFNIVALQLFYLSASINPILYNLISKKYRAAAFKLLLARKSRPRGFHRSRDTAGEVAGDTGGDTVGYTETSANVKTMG
T1 sequence (G1T803 1-400): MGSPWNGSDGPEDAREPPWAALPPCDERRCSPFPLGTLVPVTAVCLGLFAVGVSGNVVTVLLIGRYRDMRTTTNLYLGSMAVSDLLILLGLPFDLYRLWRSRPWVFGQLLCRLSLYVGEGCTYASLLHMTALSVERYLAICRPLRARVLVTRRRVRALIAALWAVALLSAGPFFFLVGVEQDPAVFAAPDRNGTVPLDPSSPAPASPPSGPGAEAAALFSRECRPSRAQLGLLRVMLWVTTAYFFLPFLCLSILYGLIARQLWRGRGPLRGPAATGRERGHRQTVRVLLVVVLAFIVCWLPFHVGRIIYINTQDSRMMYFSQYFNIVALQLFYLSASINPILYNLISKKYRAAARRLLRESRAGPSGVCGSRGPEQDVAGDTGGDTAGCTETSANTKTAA

With `O=C(CCC(=O)N(Cc1cccc(F)c1)c1cccc(OCCN2CCOCC2)c1)N(CCc1ccccc1)Cc1ccccc1` [compound 164], the IC50 in assay [1] was determined as 0.048 µM. At Motilin Receptor, the inhibition was found to be 84% and the IC50 came out at 0.194 µM.
The matching figures for `O=C(CCCC(=O)N(Cc1cccc(F)c1)c1cccc(OCCN2CCOCC2)c1)N(CCc1ccccc1)Cc1ccccc1` [compound 169]: 0.24 µM, 97% and 0.046 µM.
The matching figures for `O=C(CCCC(=O)N(Cc1ccccc1F)c1cccc(OCCN2CCOCC2)c1)N(CCc1ccccc1)Cc1ccccc1` [compound 170]: 0.185 µM, 81% and 0.163 µM.
The like results for `COc1ccc(CN(C(=O)CCCC(=O)N(CCc2ccccc2)Cc2ccccc2)c2cccc(OCCN3CCOCC3)c2)cc1` [compound 171] were, in that order, 0.23 µM, 63% and 0.462 µM.
As for `O=C(CCCC(=O)N(Cc1ccc(Cl)cc1)c1cccc(OCCN2CCOCC2)c1)N(CCc1ccccc1)Cc1ccccc1` [compound 173], the IC50 in assay [1] is 0.28 µM; on Motilin Receptor it was 0.29 µM. The inhibition at Motilin Receptor is 84%.
Consider `CCN(CC)CCOc1cccc(N(Cc2ccc(F)cc2)C(=O)CCCC(=O)N(CCc2ccccc2)Cc2ccccc2)c1` [compound 178], for which the IC50 in assay [1] is 0.015 µM. For the same molecule, on Motilin Receptor, the inhibition was 100% and the IC50 came to 0.07 µM.
The matching figures for `O=C(CCCC(=O)N(Cc1ccc(F)cc1)c1cccc(OCCN2CCNCC2)c1)N(CCc1ccccc1)Cc1ccccc1` [compound 179]: 0.023 µM, 85% and 0.24 µM.
The like results for `O=C(CCCC(=O)N(Cc1ccc(F)cc1)c1cccc(OCCN2CCCC2)c1)N(CCc1ccccc1)Cc1ccccc1` [compound 180] were, in that order, 0.011 µM, 99% and 0.014 µM.
The like results for `CN(C)CCOc1cccc(N(Cc2ccc(F)cc2)C(=O)CCCC(=O)N(CCc2ccccc2)Cc2ccccc2)c1` [compound 181] were, in that order, 0.012 µM, 100% and 0.093 µM.
As to `O=C(CCCC(=O)N(Cc1ccc(F)cc1)c1cccc(OCCN2CCCCC2)c1)N(CCc1ccccc1)Cc1ccccc1` [compound 182], the values for the IC50 (in assay [1]; on Motilin Receptor) were 0.053 µM and 0.022 µM, respectively. Also, the inhibition on Motilin Receptor was found to be 94%.
The matching figures for `O=C(CCCC(=O)N(Cc1ccc(F)cc1)c1cccc(OCCCN2CCCCC2)c1)N(CCc1ccccc1)Cc1ccccc1` [compound 188]: 0.092 µM, 0.247 µM and 100%.
With `Cc1c(OCCN2CCCC2)cccc1N(Cc1ccc(F)cc1)C(=O)CCCC(=O)N(CCc1ccccc1)Cc1ccccc1` [compound 196], the IC50 in assay [1] is 0.004 µM; on Motilin Receptor it was 0.006 µM. The inhibition on Motilin Receptor was 100%.
For the molecule `O=C(CCCC(=O)N(Cc1ccc(F)cc1)c1cccc(OCCN2CCCC2)c1)N(CCc1ccccc1)Cc1cccc([N+](=O)[O-])c1` [compound 197], the half-inhibitory concentration (IC50) in assay [1] amounted to 0.0076 µM. For the same molecule, on Motilin Receptor, the inhibition worked out at 85% and the IC50 stood at 0.009 µM.
The matching figures for `O=C(CCCC(=O)N(Cc1ccc(F)cc1)c1cccc(OCCN2CCCC2)c1)N(CCc1ccccn1)Cc1cccc(Cl)c1` [compound 201]: 0.0168 µM, 93% and 0.057 µM.
The matching figures for `O=C(CCCC(=O)N(Cc1ccc(F)cc1)c1cccc(OCCN2CCCC2)c1)N(CCc1ccc(Cl)cc1)Cc1cccc(Cl)c1` [compound 202]: 0.23 µM, 100% and 0.33 µM.
The matching figures for `O=C(CCCC(=O)N(Cc1ccc(F)cc1)c1cccc(OCCN2CCCC2)c1)N(CCc1cccs1)Cc1cccc(Cl)c1` [compound 204]: 0.003 µM, 89% and 0.029 µM.
For the molecule `Cc1c(OCCN2CCCC2)cccc1N(CC1CCCC(N(Cc2cccc(Cl)c2)C(=O)C(Cl)(Cl)Cl)C1)C(=O)c1ccc(F)cc1` (stereo not shown) [compound 209], in assay [1], the IC50 is 0.021 µM. Also, at Motilin Receptor, the inhibition was determined as 84% and the half-maximal inhibitory concentration (IC50) worked out at 0.059 µM.
The matching figures for `Cc1c(OCCN2CCCC2)cccc1N(CC1CCCC(N(Cc2ccccc2)C(=O)C(Cl)(Cl)Cl)C1)C(=O)c1ccc(F)cc1` (stereo not shown) [compound 210]: 0.024 µM, 90% and 0.086 µM.
The matching figures for `O=C(c1ccc(F)cc1)N(CC1CCCC(N(Cc2ccccc2)C(=O)C(Cl)(Cl)Cl)C1)c1cccc(OCCN2CCCC2)c1` (stereo not shown) [compound 213]: 0.027 µM, 84% and 0.058 µM.
On to `CC(C)(C)C(=O)N(Cc1ccccc1)C1CCC(CN(C(=O)c2ccc(F)cc2)c2cccc(OCCN3CCCC3)c2)C1` (stereo not shown) [compound 216], for which the “Human Antrum % Inh @1 μM” value in assay [2] is 100%.
The same measure, in the same setting: the result for `CC(C)(C)C(=O)N(Cc1cccc(Cl)c1)C1CCC(CN(C(=O)c2ccc(F)cc2)c2cccc(OCCN3CCCC3)c2)C1` (stereo not shown) [compound 217] reads 98%.
Regarding `O=C(c1ccc(F)cc1)N(CC1CCC(N(Cc2cccc([N+](=O)[O-])c2)C(=O)C(Cl)(Cl)Cl)C1)c1cccc(OCCN2CCCC2)c1` (stereo not shown) [compound 219], in assay [2], the IC50 came out at 0.0076 µM and the “Human Antrum % Inh @1 μM” value came to 98%.
For the molecule `CC(C)(C)C(=O)N(Cc1ccc(F)c(F)c1)[C@@H]1CC[C@H](CN(C(=O)c2ccc(F)cc2)c2cccc(OCCN3CCCC3)c2)C1` [compound 220], the inhibition at 1 µM in assay [2] came out at 92%.
`CC(C)(C)C(=O)N(Cc1ccccc1)C1C=CC(CN(C(=O)c2ccc(F)cc2)c2cccc(OCCN3CCCC3)c2)C1` (stereo not shown) [compound 221]: the “Human Antrum % Inh @1 μM” value in assay [2] is given as 94%.
For `CC(C)(C)C(=O)N(Cc1ccc(Cl)c(Cl)c1)C1CCCC(CN(C(=O)c2ccc(F)cc2)c2cccc(OCCN3CCCC3)c2)C1` (stereo not shown) [compound 227], in assay [2], the IC50 came to 0.025 µM and the inhibition at 1 µM amounted to 100%.
The like results for `CC(C)(C)C(=O)N(Cc1ccc(F)c(F)c1)C1CCCC(CN(C(=O)c2ccc(F)cc2)c2cccc(OCCN3CCCC3)c2)C1` (stereo not shown) [compound 228] were, in that order, 0.025 µM and 100%.

In general, IC50 refers to the concentration that inhibits the measured activity by half.
